Among the data in ChEMBL document CHEMBL1154579, “Novel cytotoxic diterpenes from Casearia arborea” (J Nat Prod, 2000) are IC50 values, retold here.

The subject of one test is LOX IMVI. The test is described as follows: Cytotoxicity against human LOX IMVI cells after 2 days. To be noted: 48 h. The test is classed as functional, cell-based.
In another test the test system is SF-539. Put plainly: Cytotoxicity against human SF539 cells after 2 days. The test is classed as functional, cell-based. Conditions: SF-539, 48 h.

Regarding `C=C/C(C)=C/C[C@]1(C)[C@H](C)C[C@H](OC(=O)c2ccc(O)cc2)[C@@]23C(=C[C@H](OC(C)=O)C[C@@H]12)[C@@H](OC(C)=O)O[C@H]3OC(C)=O` [CASEARBORIN E], the IC50 with LOX IMVI and in the test with SF-539 was 290 nM in each case.

As to `C=C/C(C)=C/C[C@]1(C)[C@H](C)CC[C@@]23C(=C[C@H](OC(=O)c4ccc(O)c(OC)c4)C[C@@H]12)[C@@H](OC(C)=O)O[C@H]3OC(C)=O` [CASEARBORIN B], the half-inhibitory concentration (IC50) in the test on LOX IMVI and in the test with SF-539 was 290 nM in each case.

Regarding `C=C/C(C)=C/C[C@]1(C)[C@H](C)C[C@H](OC(=O)c2ccc(O)cc2)[C@@]23C(=C[C@H](O)C[C@@H]12)[C@@H](OC(C)=O)O[C@H]3OC(C)=O` [CASEARBORIN C], the concentration for half-maximal inhibition (IC50) in the test with LOX IMVI and in the test on SF-539 was 290 nM throughout.

Regarding `C=C/C(C)=C/C[C@]1(C)[C@H](C)CC[C@@]23C(=C[C@H](OC(=O)c4ccc(O)cc4)C[C@@H]12)[C@@H](OC(C)=O)O[C@H]3OC(C)=O` [CASEARBORIN A], the concentration for half-maximal inhibition (IC50) in the test on LOX IMVI and with SF-539 was 290 nM in each case.

On to `C=C/C(C)=C/C[C@]1(C)[C@H](C)C[C@H](O)[C@@]23C(=C[C@H](OC(=O)c4ccc(O)cc4)C[C@@H]12)[C@@H](OC(C)=O)O[C@H]3OC(C)=O` [CASEARBORIN D], for which the half-inhibitory concentration (IC50) in the test with LOX IMVI and in the test with SF-539 was 290 nM throughout.
